Laboratory results published in PubChem BioAssay AID1259407 (Chemical Carcinogenesis Research Information System (CCRIS), 2018).
Active and inactive are the calls of the source. How the calls were made is not given here.

System: CCRIS mutagenicity, Ames/micronucleus/aberration tests
Assay: CCRIS mutagenicity studies
[1] = Test System: AMES SALMONELLA TYPHIMURIUM, Strain/Indicator: TA98, Metabolic Activation: NONE, Method: STANDARD PLATE
[2] = Test System: AMES SALMONELLA TYPHIMURIUM, Strain/Indicator: TA100, Metabolic Activation: NONE, Method: STANDARD PLATE
[3] = Test System: AMES SALMONELLA TYPHIMURIUM, Strain/Indicator: TA1535, Metabolic Activation: NONE, Method: STANDARD PLATE
[4] = Test System: AMES SALMONELLA TYPHIMURIUM, Strain/Indicator: TA1537, Metabolic Activation: NONE, Method: STANDARD PLATE
[5] = Test System: AMES SALMONELLA TYPHIMURIUM, Strain/Indicator: TA100, Metabolic Activation: NONE, Method: PREINCUBATION
[6] = Test System: AMES SALMONELLA TYPHIMURIUM, Strain/Indicator: TA98, Metabolic Activation: RAT, LIVER, S-9, AROCLOR 1254, Method: STANDARD PLATE

For `Cc1cccc(O)c1N`, the mutagenic call (Test System: AMES SALMONELLA TYPHIMURIUM, Strain/Indicator: TA98, Metabolic Activation: HAMSTER LIVER S-9, AROCLOR 1254, Method: STANDARD PLATE) was “inactive; negative”, the mutagenic call [1] was “inactive; negative” and the mutagenic call (Test System: AMES SALMONELLA TYPHIMURIUM, Strain/Indicator: TA98, Metabolic Activation: RAT LIVER S-9, AROCLOR 1254, Method: STANDARD PLATE) was “inactive; negative”. The mutagenic call (Test System: AMES SALMONELLA TYPHIMURIUM, Strain/Indicator: TA100, Metabolic Activation: HAMSTER LIVER S-9, AROCLOR 1254, Method: STANDARD PLATE) was “inactive; negative”, the mutagenic call [2] was “inactive; negative” and the mutagenic call (Test System: AMES SALMONELLA TYPHIMURIUM, Strain/Indicator: TA100, Metabolic Activation: RAT LIVER S-9, AROCLOR 1254, Method: STANDARD PLATE) was “inactive; negative”. For the same compound, the mutagenic call (Test System: AMES SALMONELLA TYPHIMURIUM, Strain/Indicator: TA102, Metabolic Activation: HAMSTER LIVER S-9, AROCLOR 1254, Method: STANDARD PLATE) was “inactive; negative”, the mutagenic call (Test System: AMES SALMONELLA TYPHIMURIUM, Strain/Indicator: TA102, Metabolic Activation: NONE, Method: STANDARD PLATE) was “inactive; negative” and the mutagenic call (Test System: AMES SALMONELLA TYPHIMURIUM, Strain/Indicator: TA102, Metabolic Activation: RAT LIVER S-9, AROCLOR 1254, Method: STANDARD PLATE) was “inactive; negative”. For the same compound, the mutagenic call (Test System: AMES SALMONELLA TYPHIMURIUM, Strain/Indicator: TA1535, Metabolic Activation: HAMSTER LIVER S-9, AROCLOR 1254, Method: STANDARD PLATE) was “inactive; negative”, the mutagenic call [3] was “inactive; negative” and the mutagenic call (Test System: AMES SALMONELLA TYPHIMURIUM, Strain/Indicator: TA1535, Metabolic Activation: RAT LIVER S-9, AROCLOR 1254, Method: STANDARD PLATE) was “inactive; negative”. The mutagenic call (Test System: AMES SALMONELLA TYPHIMURIUM, Strain/Indicator: TA1537, Metabolic Activation: HAMSTER LIVER S-9, AROCLOR 1254, Method: STANDARD PLATE) was “inactive; negative”, the mutagenic call [4] was “inactive; negative” and the mutagenic call (Test System: AMES SALMONELLA TYPHIMURIUM, Strain/Indicator: TA1537, Metabolic Activation: RAT LIVER S-9, AROCLOR 1254, Method: STANDARD PLATE) was “inactive; negative”. For the same compound, the mutagenic call (Test System: MOUSE LYMPHOMA, Strain/Indicator: L5178Y (TK+/TK-), Metabolic Activation: NONE, Method: SUSPENSION/PLATE) was “active; positive. reevaluation of results: positive” and the mutagenic call (Test System: MOUSE LYMPHOMA, Strain/Indicator: L5178Y (TK+/TK-), Metabolic Activation: RAT, LIVER, S-9, AROCLOR 1254, Method: SUSPENSION/PLATE) was “active; positive. reevaluation of results: equivocal”.

`CSc1ccc([N+](=O)[O-])cc1[N+](=O)[O-]` was tested, and the mutagenic call (Test System: AMES SALMONELLA TYPHIMURIUM, Strain/Indicator: TA100(NR), Metabolic Activation: NONE, Method: PREINCUBATION) was “active; positive”, the mutagenic call (Test System: AMES SALMONELLA TYPHIMURIUM, Strain/Indicator: TA100/GSH-, Metabolic Activation: NONE, Method: PREINCUBATION) was “active; positive” and the mutagenic call [5] was “active; positive”.

In the case of `Nc1cc(Cl)cc(Cl)c1`, the mutagenic call (End Point: In vitro chromosomal aberrations, Test System: Chinese hamster lung (CHL/IU) cells, Metabolic Activation: Rat, Liver, S9, Phenobarbital and 5,6-benzoflavone) was “active; positive (structural changes and ploidy)”, the mutagenic call [1] was “inactive; negative” and the mutagenic call [6] was “inactive; negative”. The mutagenic call [2] was “inactive; negative”, the mutagenic call (Test System: AMES SALMONELLA TYPHIMURIUM, Strain/Indicator: TA100, Metabolic Activation: RAT, LIVER, S-9, AROCLOR 1254, Method: STANDARD PLATE) was “inactive; negative” and the mutagenic call (Test System: UDS RODENT HEPATOCYTES, Strain/Indicator: THY INCORP (NON-S-PHASE), Metabolic Activation: NONE, Method: AUTORADIOGRAPHY) was “inactive; negative”.

`O=[N+]([O-])c1c(O)ccc2c1[nH]c1ccccc12` was tested, and the mutagenic call [1] was “inactive; negative” and the mutagenic call [6] was “inactive; negative”.

For `CCOC(=O)CC1OCCc2c1[nH]c1c(CC)c(O)ccc21` (centres undefined), the mutagenic call [1] was “inactive; negative”, the mutagenic call (Test System: AMES SALMONELLA TYPHIMURIUM, Strain/Indicator: TA98, Metabolic Activation: RAT, LIVER, S-9 (10 OR 50 µL/PLATE), Method: STANDARD PLATE) was “inactive; negative” and the mutagenic call [2] was “inactive; negative”. The mutagenic call (Test System: AMES SALMONELLA TYPHIMURIUM, Strain/Indicator: TA100, Metabolic Activation: RAT, LIVER, S-9 (10 OR 50 µL/PLATE), Method: STANDARD PLATE) was “inactive; negative”, the mutagenic call [3] was “active; positive” and the mutagenic call (Test System: AMES SALMONELLA TYPHIMURIUM, Strain/Indicator: TA1535, Metabolic Activation: RAT, LIVER, S-9 (10 OR 50 µL/PLATE), Method: STANDARD PLATE) was “active; positive”. For the same compound, the mutagenic call [4] was “inactive; negative”, the mutagenic call (Test System: AMES SALMONELLA TYPHIMURIUM, Strain/Indicator: TA1537, Metabolic Activation: RAT, LIVER, S-9 (10 OR 50 µL/PLATE), Method: STANDARD PLATE) was “inactive; negative” and the mutagenic call (Test System: E. COLI, Strain/Indicator: WP2 UVRA, Metabolic Activation: NONE, Method: STANDARD PLATE) was “inactive; negative”. For the same compound, the mutagenic call (Test System: E. COLI, Strain/Indicator: WP2 UVRA, Metabolic Activation: RAT, LIVER, S-9 (10 OR 50 µL/PLATE), Method: STANDARD PLATE) was “inactive; negative”.

`c1ccc2cc3c4c(ccc3cc2c1)CCC1OC41` (centres undefined) was tested, and the mutagenic call (Test System: CHINESE HAMSTER V-79, Strain/Indicator: V-79/8-AZAGUANINE, Metabolic Activation: NONE, Method: STANDARD PLATE) was “active; positive”.

`COc1nncc2cnccc12` was tested, and the mutagenic call (Test System: AMES SALMONELLA TYPHIMURIUM, Strain/Indicator: TA98, Metabolic Activation: NONE, Method: PREINCUBATION) was “inactive; negative”, the mutagenic call (Test System: AMES SALMONELLA TYPHIMURIUM, Strain/Indicator: TA98, Metabolic Activation: RAT, LIVER, S-9, PCB, Method: PREINCUBATION) was “inactive; negative” and the mutagenic call [5] was “inactive; negative”. The mutagenic call (Test System: AMES SALMONELLA TYPHIMURIUM, Strain/Indicator: TA100, Metabolic Activation: RAT, LIVER, S-9, PCB, Method: PREINCUBATION) was “inactive; negative”.

In the case of `Cl[C@@H]1O[C@@H]1CBr`, the mutagenic call [5] was “active; positive”.
